# Experimental data reported in PubChem BioAssay (NCI).
#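 Interpolation was linear, between the two tested concentrations surrounding the appropriate level; five concentrations were tested over 48 hours in 96-well plates. The concentration for full growth arrest is given as TGI.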
# Columns and labels:
# Experiment in all cases: DTP human tumour cell line panel, 48 h
# [1] = test system: 786-0 renal
# [2] = test system: A498 renal
# [3] = test system: A549 NSCLC
# [4] = test system: ACHN renal
# [5] = test system: BT-549 breast
# [6] = test system: CAKI-1 renal
# [7] = test system: CCRF-CEM leukemia
# [8] = test system: COLO 205 colon
# [9] = test system: DU-145 prostate
# [10] = test system: EKVX NSCLC
# [11] = test system: HCC-2998 colon
# [12] = test system: HCT-116 colon
# [13] = test system: HCT-15 colon
# [14] = test system: HL-60(TB) leukemia
# [15] = test system: HOP-62 NSCLC
# [16] = test system: HOP-92 NSCLC
# [17] = test system: HS 578T breast
# [18] = test system: HT29 colon
# [19] = test system: IGROV1 ovarian
# [20] = test system: K-562 leukemia
# [21] = test system: KM12 colon
# [22] = test system: LOX IMVI melanoma
# [23] = test system: M14 melanoma
# [24] = test system: MALME-3M melanoma
# [25] = test system: MCF7 breast
# [26] = test system: MDA-MB-231 breast
# [27] = test system: MDA-MB-435
# [28] = test system: MDA-N
# [29] = test system: MOLT-4 leukemia
# [30] = test system: NCI-H226 lung
# [31] = test system: NCI-H23 lung
# [32] = test system: NCI-H460 lung
# [33] = test system: NCI-H522 lung
# [34] = test system: NCI/ADR-RES ovarian
# [35] = test system: OVCAR-3 ovarian
# [36] = test system: OVCAR-4 ovarian
# [37] = test system: OVCAR-5 ovarian
# [38] = test system: OVCAR-8 ovarian
# [39] = test system: PC-3 prostate
# [40] = test system: RPMI-8226 leukemia
# [41] = test system: RXF 393 renal
# [42] = test system: SF-268 CNS
# [43] = test system: SF-295 CNS
# [44] = test system: SF-539 CNS
# [45] = test system: SK-MEL-2 melanoma
# [46] = test system: SK-MEL-28 melanoma
# [47] = test system: SK-MEL-5 melanoma
# [48] = test system: SK-OV-3 ovarian
# [49] = test system: SN12C renal
# [50] = test system: SNB-19 CNS
# [51] = test system: SNB-75 CNS
# [52] = test system: SR leukemia
# [53] = test system: SW-620 colon
# [54] = test system: T-47D breast
# [55] = test system: TK-10 renal
# [56] = test system: U251 CNS
# [57] = test system: UACC-257 melanoma
# [58] = test system: UACC-62 melanoma
# [59] = test system: UO-31 renal
smiles,measurement,setting,value
O=C1C=CC(=O)c2c(O)c(N(CCCl)CCCl)c(Cl)c(O)c21,TGI,[1],> 7.67 µM
same,TGI,[2],> 9.53 µM
same,TGI,[3],> 10 µM
same,TGI,[4],5.6 µM
same,TGI,[5],> 7.26 µM
same,TGI,[6],6.51 µM
same,TGI,[7],> 7.38 µM
same,TGI,[8],5.57 µM
same,TGI,[9],> 10 µM
same,TGI,[10],> 10 µM
same,TGI,[11],> 10 µM
same,TGI,[12],5.68 µM
same,TGI,[13],> 8.58 µM
same,TGI,[14],> 10 µM
same,TGI,[15],> 10 µM
same,TGI,[16],5.78 µM
same,TGI,[17],> 10 µM
same,TGI,[18],> 8.53 µM
same,TGI,[19],> 7.99 µM
same,TGI,[20],> 10 µM
same,TGI,[21],> 9.63 µM
same,TGI,[22],6.25 µM
same,TGI,[23],6.06 µM
same,TGI,[24],5.79 µM
same,TGI,[25],> 8.33 µM
same,TGI,[26],6.75 µM
same,TGI,[27],5.83 µM
same,TGI,[28],5.79 µM
same,TGI,[29],> 10 µM
same,TGI,[30],> 10 µM
same,TGI,[31],> 8.05 µM
same,TGI,[32],> 10 µM
same,TGI,[33],6.01 µM
same,TGI,[34],> 10 µM
same,TGI,[35],7.25 µM
same,TGI,[36],6.24 µM
same,TGI,[37],> 9.1 µM
same,TGI,[38],6.9 µM
same,TGI,[39],> 8.55 µM
same,TGI,[40],> 10 µM
same,TGI,[41],> 6.69 µM
same,TGI,[42],> 8.4 µM
same,TGI,[43],> 10 µM
same,TGI,[44],> 7.9 µM
same,TGI,[45],> 7.91 µM
same,TGI,[46],> 6.98 µM
same,TGI,[47],7.41 µM
same,TGI,[48],> 10 µM
same,TGI,[49],> 7.71 µM
same,TGI,[50],> 10 µM
same,TGI,[51],> 10 µM
same,TGI,[52],> 10 µM
same,TGI,[53],6.56 µM
same,TGI,[54],6.57 µM
same,TGI,[55],4.93 µM
same,TGI,[56],> 9.09 µM
same,TGI,[57],5.23 µM
same,TGI,[58],> 7.71 µM
same,TGI,[59],> 7.1 µM
